Measurements taken from patent US20040063734A1, “4,4-Disubstituted-3,4-dihydro-2 (1H)-quinazoliniones useful as HIV reverse transcriptase inhibitors” (priority 2002, published 2004).
Converted amounts (≈) assume the structure as drawn.

Tested on: HIV-1 (RF)
Assay: HIV RNA assay: microplate based compound evaluation in HIV-1 infected MT-2 cells
Type: cell-based
Conditions: Human immunodeficiency virus 1, MT2, 72 h; HIV-1 (RF) infected MT-2 cells, 3 days culture; value used to standardize the virus inoculum; read-out: IC90 (concentration of compound required to reduce the HIV RNA level by 90%)
Method: DNA Plasmids and in vitro RNA Transcripts:
Plasmid pDAB 72 containing both gag and pol sequences of BH10 (bp 113-1816) cloned into PTZ 19R was prepared according to Erickson-Viitanen et al. AIDS Research and Human Retroviruses 1989, 5, 577. The plasmid was linearized with Bam HI prior to the generation of in vitro RNA transcripts using the Riboprobe Gemini system II kit (Promega) with T7 RNA polymerase. Synthesized RNA was purified by treatment with RNase free DNAse (Promega), phenol-chloroform extraction, and ethanol precipitation. RNA transcripts were dissolved in water, and stored at −70° C. The concentration of RNA was determined from the A260.
Biotinylated capture probes were purified by HPLC after synthesis on an Applied Biosystems (Foster City, Calif.) DNA synthesizer by addition of biotin to the 5′ terminal end of the oligonucleotide, using the biotin-phosphoramidite reagent of Cocuzza, Tet. Lett. 1989, 30, 6287. […]
MT-2 and MT-4 cells were maintained in RPMI 1640 supplemented with 5% fetal calf serum (FCS) for MT-2 cells or 10% FCS for MT-4 cells, 2 mM L-glutamine and 50 μg/mL gentamycin, all from Gibco. […] Infectious titers of HIV-1(RF) stocks were 1-3×10^7 PFU (plaque forming units)/mL as measured by plaque assay on MT-2 cells (see below). […]

IC90: 0.2 µg/mL (≈ 0.947 µM)
Structure (SMILES): Nc1ccn([C@H]2CC[C@@H](CO)O2)c(=O)n1 [ddC, 2′,3′-dideoxycytidine]
